Biological target: Factor D (Homo sapiens (Human), UniProt P00746)
Assay: Factor D esterolytic assay
Type: biochemical
Conditions: Z-Lys-SBzl substrate, 100 mM HEPES, 500 mM NaCl, pH 7.5, 10% DMSO; tested a minimum of three times; read-out: Measured Ki (IC50) Value for Compounds: IC50
Method in brief: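 Chromogenic thioesterase read-out: Z-Lys-SBzl (1.29 mM) hydrolysis by human Factor D, thiol detected with DTNB at 405 nm (690 nm background subtracted) for 600 s. Run in 100 mM HEPES, 500 mM NaCl, pH 7.5, 10% DMSO, substrate added immediately or after room-temperature preincubation. IC50 from percent inhibition versus enzyme alone, n≥3.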

Chain of Factor D (P00746 26-253): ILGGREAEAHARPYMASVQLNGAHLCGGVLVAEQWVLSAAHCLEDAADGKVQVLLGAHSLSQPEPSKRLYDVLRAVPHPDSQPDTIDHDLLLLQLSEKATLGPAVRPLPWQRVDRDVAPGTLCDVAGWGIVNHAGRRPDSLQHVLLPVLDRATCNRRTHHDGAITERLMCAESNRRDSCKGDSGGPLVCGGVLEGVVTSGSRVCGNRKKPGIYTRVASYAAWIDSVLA

Structure (SMILES)	IC50 [nM]
NCc1cccc(-c2cc(F)cc3cc(COc4ccccc4CC(=O)O)oc23)c1 [Compound 31f, 2-(2-((7-(3-(aminomethyl)phenyl)-5-fluorobenzofuran-2-yl)methoxy)phenyl)acetic acid]	< 1000
CCOC(=O)Cc1ccc(OC)cc1OCc1nn(C)c2ccc(-c3ccnc(CN)c3)cc12 [Compound 315b, ethyl 2-(2-((5-(2-(aminomethyl)pyridin-4-yl)-1-methyl-1H-indazol-3-yl)methoxy)-4-methoxyphenyl)acetate]	< 1000
C[C@H](N)c1cccc(-c2ccc3occ(COc4ccccc4CC(=O)O)c3c2)c1 [Compound 54c, (S)-2-(2-((5-(3-(1-aminoethyl)phenyl)benzofuran-3-yl)methoxy)phenyl)acetic acid]	< 1000
NCc1cccc(-c2ccc3c(c2)c(COc2ccccc2CC(=O)O)nn3C2CCC2)c1 [Compound 298d, 2-(2-((5-(3-(aminomethyl)phenyl)-1-cyclobutyl-1H-indazol-3-yl)methoxy)phenyl)acetic acid]	< 1000
NCc1cccc(-c2ccc3occ(Cc4ccccc4CC(=O)O)c3c2)c1 [Compound 73f, 2-(2-((5-(3-(aminomethyl)phenyl)benzofuran-3-yl)methyl)phenyl)acetic acid]	1000 to 10000
NCc1cccc(-c2cc(CN3CCC(F)(F)C3)c3occ(COc4ccccc4CC(=O)O)c3c2)c1 [Compound 181f, 2-(2-((5-(3-(aminomethyl)phenyl)-7-((3,3-difluoropyrrolidin-1-yl)methyl)benzofuran-3-yl)methoxy)phenyl)acetic acid]	< 1000
COC[C@H]1CCCN1Cc1cc(-c2cccc(CN)c2)cc2c(COc3ccccc3CC(=O)O)coc12 [Compound 205d, (R)-2-(2-((5-(3-(aminomethyl)phenyl)-7-((2-(methoxymethyl)pyrrolidin-1-yl)methyl)benzofuran-3-yl)methoxy)phenyl)acetic acid]	< 1000
NCc1cccc(-c2cc(CNCC(F)(F)F)c3occ(COc4ccccc4CC(=O)O)c3c2)c1 [Compound 179b, 2-(2-((5-(3-(aminomethyl)phenyl)-7-(((2,2,2-trifluoroethyl)amino)methyl)benzofuran-3-yl)methoxy)phenyl)acetic acid]	< 1000
CC(C)n1nc(C(=O)Nc2ccccc2C(=O)O)c2cc(-c3cccc(CN)c3)ccc21 [Compound 314e, 2-(5-(3-(aminomethyl)phenyl)-1-isopropyl-1H-indazole-3-carboxamido)benzoic acid]	> 10000
CCc1ccc(CC(=O)O)c(OCc2c(C)oc3ccc(-c4cccc(CN)c4)cc23)c1 [Compound 202c, 2-(2-((5-(3-(aminomethyl)phenyl)-2-methylbenzofuran-3-yl)methoxy)-4-ethylphenyl)acetic acid]	< 1000
Cc1ccccc1-c1cc(-c2cccc(CN)c2)cc2c(COc3ccccc3CC(=O)O)coc12 [Compound 223c, 2-(2-((5-(3-(aminomethyl)phenyl)-7-(o-tolyl)benzofuran-3-yl)methoxy)phenyl)acetic acid]	< 1000
NCc1cccc(-c2cc(NC[C@@H]3CCCO3)c3occ(COc4ccccc4CC(=O)O)c3c2)c1 [Compound 275d, (S)-2-(2-((5-(3-(aminomethyl)phenyl)-7-(((tetrahydrofuran-2-yl)methyl)amino)benzofuran-3-yl)methoxy)phenyl)acetic acid]	< 1000
Cc1nn(C)c(C)c1-c1cc(-c2cccc(CN)c2)cc2c(COc3ccccc3CC(=O)O)coc12 [Compound 268c, 2-(2-((5-(3-(aminomethyl)phenyl)-7-(1,3,5-trimethyl-1H-pyrazol-4-yl)benzofuran-3-yl)methoxy)phenyl)acetic acid]	< 1000

Next, values leading:

IC50 [nM]	Structure (SMILES)
< 1000	NCc1cccc(-c2cc(CN3CCC3)c3occ(COc4ccccc4CC(=O)O)c3c2)c1 [Compound 207d, 2-(2-((5-(3-(aminomethyl)phenyl)-7-(azetidin-1-ylmethyl)benzofuran-3-yl)methoxy)phenyl)acetic acid]
< 1000	COc1ccc(CC(=O)O)c(OCc2coc3ccc(-c4cccc(CN)c4F)cc23)c1 [Compound 6e, 2-(2-((5-(3-(aminomethyl)-2-fluorophenyl)benzofuran-3-yl)methoxy)-4-methoxyphenyl)acetic acid]
< 1000	NCc1cccc(-c2cc([N+](=O)[O-])c3oc(C(=O)O)c(COc4ccccc4CC(=O)O)c3c2)c1 [Compound 59g, 5-(3-(aminomethyl)phenyl)-3-((2-(carboxymethyl)phenoxy)methyl)-7-nitrobenzofuran-2-carboxylic acid]
< 1000	NCc1cccc(-c2cc(CN3CC[C@H](F)C3)c3occ(COc4ccccc4CC(=O)O)c3c2)c1 [Compound 180d, (S)-2-(2-((5-(3-(aminomethyl)phenyl)-7-((3-fluoropyrrolidin-1-yl)methyl)benzofuran-3-yl)methoxy)phenyl)acetic acid]
< 1000	NCc1cccc(-c2ccc3oc(-c4ccc(F)cc4)c(COc4ccccc4CC(=O)O)c3c2)c1 [Compound 167e, 2-(2-((5-(3-(aminomethyl)phenyl)-2-(4-fluorophenyl)benzofuran-3-yl)methoxy)phenyl)acetic acid]
1000 to 10000	CC(C)n1nc(COc2ccccc2CC(=O)O)c2cc(-c3ccc(O)c(CN)c3)ccc21 [Compound 317d, 2-(2-((5-(3-(aminomethyl)-4-hydroxyphenyl)-1-isopropyl-1H-indazol-3-yl)methoxy)phenyl)acetic acid]
< 1000	NCc1cccc(-c2ccc3occ(COc4ccc(F)cc4CC(=O)O)c3c2)c1 [Compound 5d, 2-(2-((5-(3-(aminomethyl)phenyl)benzofuran-3-yl)methoxy)-5-fluorophenyl)acetic acid]
< 1000	Cc1oc2ccc(-c3cccc(CN)c3)cc2c1COc1ccccc1CC(=O)O [Compound 124f, 2-(2-((5-(3-(aminomethyl)phenyl)-2-methylbenzofuran-3-yl)methoxy)phenyl)acetic acid]
< 1000	COc1cccc(CC(=O)O)c1OCc1coc2ccc(-c3cccc(CN)c3)cc12 [Compound 104e, 2-(2-((5-(3-(aminomethyl)phenyl)benzofuran-3-yl)methoxy)-3-methoxyphenyl)acetic acid]
< 1000	CCNc1cc(-c2cccc(CN)c2)cc2c(COc3ccccc3CC(=O)O)coc12 [Compound 150d, 2-(2-((5-(3-(aminomethyl)phenyl)-7-(ethylamino)benzofuran-3-yl)methoxy)phenyl)acetic acid]
< 1000	NCc1cccc(-c2cc(OCCN3CCOCC3)c3occ(COc4ccccc4CC(=O)O)c3c2)c1 [Compound 250f, 2-(2-((5-(3-(aminomethyl)phenyl)-7-(2-morpholinoethoxy)benzofuran-3-yl)methoxy)phenyl)acetic acid]
< 1000	COc1ccc(CC(=O)O)c(OCc2coc3c2cc(-c2cccc(CN)c2)c2occc23)c1 [Compound 231c, 2-(2-((5-(3-(aminomethyl)phenyl)benzo[1,2-b:3,4-b′]difuran-3-yl)methoxy)-4-methoxyphenyl)acetic acid]
< 1000	CCc1oc2ccc(-c3cccc(CN)c3F)cc2c1COc1cc(OC)ccc1CC(=O)O [Compound 227b, 2-(2-((5-(3-(aminomethyl)-2-fluorophenyl)-2-ethylbenzofuran-3-yl)methoxy)-4-methoxyphenyl)acetic acid]
